Patent US20110306597A1, “Nicotinamide Derivatives” (priority 2008, published 2011)

target: human recombinant H-PGDS (Homo sapiens, UniProt O60760); assay: Fluorescence Intensity h-PGDS TBA Enzyme Assay; format: biochemical; conditions: 1:175,000 human recombinant H-PGDS, highest inhibitor concentration typically 1 μM
Summary of the method: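 Recombinant human H-PGDS preincubated 10 min at room temperature with inhibitor in 100 mM Tris pH 8.0, 100 μM MgCl2, 2.5 mM glutathione, 0.5% DMSO; 5.0 μM PGH2 added, stopped after 42 s with FeCl2/citric acid. Remaining PGH2 measured as MDA–TBA fluorescence (ex 530/em 565 nm); IC50 by 4-parameter fit, 11 concentrations.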

Sequence of human recombinant H-PGDS (O60760 whole entry): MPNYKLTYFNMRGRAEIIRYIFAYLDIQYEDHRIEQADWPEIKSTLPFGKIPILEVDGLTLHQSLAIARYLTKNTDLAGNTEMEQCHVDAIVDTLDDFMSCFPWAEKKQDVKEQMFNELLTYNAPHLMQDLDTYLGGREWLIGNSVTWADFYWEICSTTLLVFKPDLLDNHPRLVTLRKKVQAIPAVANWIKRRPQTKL

| IC50 [nM] | Compound |
| --- | --- |
| 324 | COc1cccc(-c2ccc(C(=O)NCCc3nc(C)no3)cn2)c1 [Example 278, 6-(3-Methoxyphenyl)-N-[2-(3-methyl-1,2,4-oxadiazol-5-yl)ethyl]nicotinamide] |
| 39.4 | Cc1c[nH]c(CCNC(=O)c2ccc(-c3cccc(F)c3)nc2)n1 [Example 130, 6-(3-Fluorophenyl)-N-[2-(4-methyl-1H-imidazol-2-yl)ethyl]nicotinamide] |
| ≥ 1000 | CS(=O)(=O)Cc1noc(CNC(=O)c2ccc(-c3ccc(F)cc3)nc2)n1 [Example 322, 6-(4-Fluorophenyl)-N-({3-[(methylsulfonyl)methyl]-1,2,4-oxadiazol-5-yl}methyl)nicotinamide] |
| 89.6 | CCCOCCCNC(=O)c1ccc(-c2cc(F)cc(OC)c2)nc1 [Example 557, 6-(3-Fluoro-5-methoxypheny)-N-(3-propoxypropyl)nicotinamide] |
| 826 | COC(=O)CNC(=O)c1ccc(-c2cccc(OC)c2)nc1 [Example 283, Methyl N-{[6-(3-methoxyphenyl)pyridin-3-yl]carbonyl}glycinate] |
| 20.9 | CC(=O)N1CCC(CNC(=O)c2ccc(-c3ccccc3)nc2)CC1 [Example 387, N-[(1-Acetylpiperidin-4-yl)methyl]-6-phenylnicotinamide] |
| 16.5 | O=C(NC1CCN(Cc2ccc(Cl)c(Cl)c2)C1=O)c1ccc(-c2ccccc2)nc1 (centres unmarked) [Example 383, N-[1-(3,4-Dichlorobenzyl)-2-oxopyrrolidin-3-yl]-6-phenylnicotinamide] |
| 219 | COc1cccc(-c2ccc(C(=O)NCCN3CCCCC3=O)cn2)c1 [Example 271, 6-(3-Methoxyphenyl)-N-[2-(2-oxopiperidin-1-yl)ethyl]nicotinamide] |
| 287 | Cc1nnc(C(C)NC(=O)c2ccc(-c3cccc(F)c3)nc2)[nH]1 (centres unmarked) [Example 138, 6-(3-Fluorophenyl)-N-[1-(5-methyl-4H-1,2,4-triazol-3-yl)ethyl]nicotinamide] |
| 7.5 | CCCCCNC(=O)c1ccc(-c2ccccc2)nc1 [Example 381, N-Pentyl-6-phenylnicotinamide] |
| 24.4 | CCOC(=O)CC(NC(=O)c1ccc(-c2ccccc2)nc1)c1ccccc1 (centres unmarked) [Example 394, Ethyl 3-phenyl-3-{[(6-phenylpyridin-3-yl)carbonyl]amino}propanoate] |
| 37.1 | O=C(NCCN1CCOC1=O)c1ccc(-c2ccccc2)nc1 [Example 359, N-[2-(2-Oxo-1,3-oxazolidin-3-yl)ethyl]-6-phenylnicotinamide] |
| 31.9 | CC(NC(=O)c1ccc(-c2ccccc2)nc1)c1ccccc1 (centres unmarked) [Example 516, 6-Phenyl-N-(1-phenylethyl)nicotinamide] |
| 14.2 | COc1ccc(CNC(=O)c2cnc(-c3cccc(F)c3)c(Cl)c2)cc1OC [Example 545, 5-Chloro-N-(3,4-dimethoxybenzyl)-6-(3-fluorophenyl)nicotinamide] |
| 34.5 | O=C(NCC1(O)CCC1)c1ccc(-c2cccc(F)c2)nc1 [Example 141, 6-(3-Fuorophenyl)-N-[(1-hydroxycyclobutyl)methyl] nicotinamide] |
| 2.33 | O=C(NC1CCOCC1)c1ccc(-c2cccc(F)c2)nc1 [Example 191, 6-(3-Ffluorophenyl)-N-(tetrahydro-2H-pyran-4-yl)nicotinamide] |
| 0.886 | O=C(NC[C@@H]1COc2ccccc2C1)c1ccc(-c2cccc(F)c2)nc1 [Example 572] |
| ≥ 1000 | COC(C)(C)CNC(=O)c1ccc(-c2ccc(F)cc2)nc1 [Example 497, 6-(4-Fluorophenyl)-N-(2-methoxy-2-methylpropyl)nicotinamide] |
| 93.4 | CCOC(=O)C1(NC(=O)c2ccc(-c3cccc(C)c3)nc2)CCOCC1 [Example 220, Ethyl 4-({[6-(3-methylphenyl)pyridin-3-yl]carbonyl}amino)tetrahydro-2H-pyran-4-carboxylate] |
| 124 | Cc1cccc(-c2ccc(C(=O)NC(=O)[C@@H](N)C(C)C)cn2)c1 [Example 243, 6-(3-Methylphenyl)-N-L-valylnicotinamide] |
| 0.95 | COc1ccc(NC(=O)c2ccc(-c3ccccc3)nc2)cc1OC [Example 515, N-(3,4-Dimethoxyphenyl)-6-phenylnicotinamide] |
| 0.906 | CCn1c(CCNC(=O)c2ccc(-c3ccccc3)nc2)nc2cc(C(=O)NCCOC)ccc21 [Example 391, 1-Ethyl-N-(2-methoxyethyl)-2-(2-{[(6-phenylpyridin-3-yl)carbonyl]amino}ethyl)-1H-benzimidazole-5-carboxamide] |

Continued, compound first:

| Compound | IC50 [nM] |
| --- | --- |
| O=C(NCCN1CCCCC1CO)c1ccc(-c2cccc(F)c2)nc1 (centres unmarked) [Example 215, 6-(3-Fluorophenyl)-N-{2-[2-(hydroxymethyl)piperidin-1-yl]ethyl}nicotinamide] | 101 |
| CN(C)C(=O)CNC(=O)c1ccc(-c2cccc(F)c2)nc1 [Example 161, N-[2-(dimethylamino)-2-oxoethyl]-6-(3-fluorophenyl)nicotinamide] | 88 |
| O=C(NCc1ccc(F)cc1)c1ccc(-c2ccc(F)cc2)nc1 [Example 482, N-(4-Fluorobenzyl)-6-(4-fluorophenyl)nicotinamide] | 527 |
| O=C(NCC1CC2(CCN(Cc3ccccn3)CC2)CO1)c1ccc(-c2cccc(F)c2)nc1 (centres unmarked) [Example 53, 6-(3-Fluorophenyl)-N-{[8-(pyridin-2-ylmethyl)-2-oxa-8-azaspiro[4.5]dec-3-yl]methyl}nicotinamide] | 19.2 |
| CCN1CCCC(CNC(=O)c2ccc(-c3cccc(F)c3)nc2)C1 (centres unmarked) [Example 114, N-[(1-Ethylpiperidin-3-yl)methyl]-6-(3-fluorophenyl)nicotinamide] | 236 |
| O=C(NCCN1CCCC1=O)c1ccc(-c2cccc(F)c2)nc1 [Example 183, 6-(3-Fluorophenyl)-N-[2-(2-oxopyrrolidin-1-yl)ethyl]nicotinamide] | 17.4 |
| COc1cccc(-c2ccc(C(=O)NCc3ccccc3)cn2)c1 [Example 341, N-Benzyl-6-(3-methoxyphenyl)nicotinamide] | 131 |
| CN(C)C(=O)CNC(=O)c1ccc(-c2ccccc2)nc1 [Example 374, N-[2-(Dimethylamino)-2-oxoethyl]-6-phenylnicotinamide] | 92.1 |
| COc1cccc(-c2ccc(C(=O)NC(=O)CC(N)c3ccc(OC)c(OC)c3)cn2)c1 (centres unmarked) [Example 277, N-[3-Amino-3-(3,4-dimethoxyphenyl)propanoyl]-6-(3-methoxyphenyl) nicotinamide] | 274 |
| COc1cc(F)cc(-c2ccc(C(=O)NCC3CCN(C(C)=O)CC3)cn2)c1 [Example 558, N-[(1-Acetylpiperidin-4-yl)methyl]-6-(3-fluoro-5-methoxyphenyl)nicotinamide] | 119 |
| O=C(NCC1CCCN(c2nc(C(F)F)cc(=O)[nH]2)C1)c1ccc(-c2cccc(F)c2)nc1 (centres unmarked) [Example 107, N-({1-[4-(Difluoromethyl)-6-oxo-1,6-dihydropyrimidin-2-yl]piperidin-3-yl}methyl)-6-(3-fluorophenyl)nicotinamide] | 15.4 |
| Cc1cccc(-c2ccc(C(=O)Nc3cccnc3)cn2)c1 [Example 488, 6-(3-Methylphenyl)-N-pyridin-3-ylnicotinamide] | 11.4 |
| O=C(NCCc1cccs1)c1ccc(-c2ccc(F)cc2)nc1 [Example 507, 6-(4-Fluorophenyl)-N-[2-(2-thienyl)ethyl]nicotinamide] | 578 |
| COc1cccc(-c2ccc(C(=O)NCCC3CCCCO3)cn2)c1 (centres unmarked) [Example 304, 6-(3-Methoxyphenyl)-N-[2-(tetrahydro-2H-pyran-2-yl)ethyl]nicotinamide] | 177 |
| O=C(NCc1coc(-c2ccccc2)n1)c1ccc(-c2cccc(F)c2)nc1 [Example 152, 6-(3-Fluorophenyl)-N-[(2-phenyl-1,3-oxazol-4-yl)methyl]nicotinamide] | 4.49 |
| COc1cccc(-c2ccc(C(=O)NCc3cccc(S(C)(=O)=O)c3)cn2)c1 [Example 292, 6-(3-Methoxyphenyl)-N-[3-(methylsulfonyl)benzyl] nicotinamide] | 215 |
| COc1ccc(CNC(=O)c2ccc(-c3ccccc3)nc2)cc1OC [Example 540, N-(3,4-Dimethoxybenzyl)-6-phenylnicotinamide] | 5.41 |
| CN(C)CCCCCNC(=O)c1ccc(-c2cccc(F)c2)nc1 [Example 77, N-[5-(Dimethylamino)pentyl]-6-(3-fluorophenyl)nicotinamide] | 90.3 |
| COc1ccc(OCCNC(=O)c2ccc(-c3cccc(F)c3)nc2)cc1 [Example 434, 6-(3-Fluorophenyl)-N-[2-(4-methoxyphenoxy)ethyl] nicotinamide] | 101 |
| O=C(NC(c1ccccc1)c1nc(CN2CCOCC2)no1)c1ccc(-c2cccc(F)c2)nc1 (centres unmarked) [Example 15, 6-(3-Fluorophenyl)-N-{[3-(morpholin-4-ylmethyl)-1,2,4-oxadiazol-5-yl](phenyl)methyl}nicotinamide] | 70.9 |
| CCCCCNC(=O)c1ccc(-c2cccc(F)c2)nc1 [Example 427, 6-(3-Fluorophenyl)-N-pentylnicotinamide] | 43.8 |
| COc1ccc(OC)c(C(O)CNC(=O)c2ccc(-c3cccc(F)c3)nc2)c1 (centres unmarked) [Example 50, N-[2-(2,5-Dimethoxyphenyl)-2-hydroxyethyl]-6-(3-fluorophenyl)nicotinamide] | 8.14 |
| Cc1cc(C)n(CCCNC(=O)c2ccc(-c3cccc(F)c3)nc2)n1 [Example 131, N-[3-(3,5-Dimethyl-1H-pyrazol-1-yl)propyl]-6-(3-fluorophenyl)nicotinamide] | 27.2 |
| COC(=O)CNC(=O)c1ccc(-c2ccc(F)cc2)nc1 [Example 500, Methyl N-{[6-(4-fluorophenyl)pyridin-3-yl]carbonyl}glycinate] | ≥ 1000 |
| CCOC(=O)CC(NC(=O)c1ccc(-c2cccc(OC)c2)nc1)c1ccccc1Cl (centres unmarked) [Example 276, Ethyl 3-(2-chlorophenyl)-3-({[6-(3-methoxyphenyl)pyridin-3-yl]carbonyl}amino) propanoate] | 252 |
